# Results: the kinase profiling compilation of Christmann-Franck et al. (2016)
# Assays:
# Assay in all cases: KINOMEscan competition binding
# Settings in all cases: compound 0.5 µM
# STK17A (human) = STK17A (human) (UniProt Q9UEE5)
# FLT1 (human) = FLT1 (human) (UniProt P17948)
# PIM2 (human) = PIM2 (human) (UniProt Q9P1W9)
# AKT3 (human) = AKT3 (human) (UniProt Q9Y243)
# IRAK1 (human) = IRAK1 (human) (UniProt P51617)
# MARK4 (human) = MARK4 (human) (UniProt Q96L34)
# [1] = test system: FLT3 (human), P36888 [R834Q]
# [2] = test system: RET (human), P07949 [V804L]
# PIM3 (human) = PIM3 (human) (UniProt Q86V86)
# FGFR3 (human) = FGFR3 (human) (UniProt P22607)
# DYRK1B (human) = DYRK1B (human) (UniProt Q9Y463)
# CLK2 (human) = CLK2 (human) (UniProt P49760)
# NEK4 (human) = NEK4 (human) (UniProt P51957)
# CSNK1D (human) = CSNK1D (human) (UniProt P48730)
# MYO3B (human) = MYO3B (human) (UniProt Q8WXR4)
# CIT (human) = CIT (human) (UniProt O14578)
# PAK2 (human) = PAK2 (human) (UniProt Q13177)
# PRKCQ (human) = PRKCQ (human) (UniProt Q04759)
# DCLK1 (human) = DCLK1 (human) (UniProt O15075)
# GSK3A (human) = GSK3A (human) (UniProt P49840)
# STK32B (human) = STK32B (human) (UniProt Q9NY57)
# [3] = target: TYK2 JH2 pseudokinase (human) (UniProt P29597)
# STK10 (human) = STK10 (human) (UniProt O94804)
# CDK4 CCND3 (human) = CDK4 CCND3 (human) (UniProt P11802+P30281)
# STK3 (human) = STK3 (human) (UniProt Q13188)
# STK25 (human) = STK25 (human) (UniProt O00506)
# MAPK15 (human) = MAPK15 (human) (UniProt Q8TD08)
# MAPK1 (human) = MAPK1 (human) (UniProt P28482)
# MYLK4 (human) = MYLK4 (human) (UniProt Q86YV6)
# CDK18 (human) = CDK18 (human) (UniProt Q07002)
# YES1 (human) = YES1 (human) (UniProt P07947)
# RPS6KA1 KD1 (human) = RPS6KA1 KD1 (human) (UniProt Q15418)
# FGFR2 (human) = FGFR2 (human) (UniProt P21802)
# [4] = test system: EIF2AK4 KD2 (human), Q9P2K8 [S808G]
# CDC2L2 (human) = CDC2L2 (human) (UniProt Q9UQ88)
# TEK (human) = TEK (human) (UniProt Q02763)
# TLK1 (human) = TLK1 (human) (UniProt Q9UKI8)
# MAP4K5 (human) = MAP4K5 (human) (UniProt Q9Y4K4)
# PRKG2 (human) = PRKG2 (human) (UniProt Q13237)
# ACVR2B (human) = ACVR2B (human) (UniProt Q13705)
# RIOK3 (human) = RIOK3 (human) (UniProt O14730)
# Sequence of PIM2 (human) (Q9P1W9 whole entry, looked up): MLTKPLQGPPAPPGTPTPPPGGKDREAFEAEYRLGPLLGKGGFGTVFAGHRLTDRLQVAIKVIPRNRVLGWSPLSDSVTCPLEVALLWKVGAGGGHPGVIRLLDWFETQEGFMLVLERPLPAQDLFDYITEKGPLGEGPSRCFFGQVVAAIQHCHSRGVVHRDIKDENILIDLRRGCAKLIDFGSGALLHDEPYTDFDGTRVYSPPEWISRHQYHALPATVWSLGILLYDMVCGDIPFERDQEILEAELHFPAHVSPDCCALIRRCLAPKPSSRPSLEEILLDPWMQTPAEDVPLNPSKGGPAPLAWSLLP
# Sequence of TEK (human) (Q02763 whole entry, looked up): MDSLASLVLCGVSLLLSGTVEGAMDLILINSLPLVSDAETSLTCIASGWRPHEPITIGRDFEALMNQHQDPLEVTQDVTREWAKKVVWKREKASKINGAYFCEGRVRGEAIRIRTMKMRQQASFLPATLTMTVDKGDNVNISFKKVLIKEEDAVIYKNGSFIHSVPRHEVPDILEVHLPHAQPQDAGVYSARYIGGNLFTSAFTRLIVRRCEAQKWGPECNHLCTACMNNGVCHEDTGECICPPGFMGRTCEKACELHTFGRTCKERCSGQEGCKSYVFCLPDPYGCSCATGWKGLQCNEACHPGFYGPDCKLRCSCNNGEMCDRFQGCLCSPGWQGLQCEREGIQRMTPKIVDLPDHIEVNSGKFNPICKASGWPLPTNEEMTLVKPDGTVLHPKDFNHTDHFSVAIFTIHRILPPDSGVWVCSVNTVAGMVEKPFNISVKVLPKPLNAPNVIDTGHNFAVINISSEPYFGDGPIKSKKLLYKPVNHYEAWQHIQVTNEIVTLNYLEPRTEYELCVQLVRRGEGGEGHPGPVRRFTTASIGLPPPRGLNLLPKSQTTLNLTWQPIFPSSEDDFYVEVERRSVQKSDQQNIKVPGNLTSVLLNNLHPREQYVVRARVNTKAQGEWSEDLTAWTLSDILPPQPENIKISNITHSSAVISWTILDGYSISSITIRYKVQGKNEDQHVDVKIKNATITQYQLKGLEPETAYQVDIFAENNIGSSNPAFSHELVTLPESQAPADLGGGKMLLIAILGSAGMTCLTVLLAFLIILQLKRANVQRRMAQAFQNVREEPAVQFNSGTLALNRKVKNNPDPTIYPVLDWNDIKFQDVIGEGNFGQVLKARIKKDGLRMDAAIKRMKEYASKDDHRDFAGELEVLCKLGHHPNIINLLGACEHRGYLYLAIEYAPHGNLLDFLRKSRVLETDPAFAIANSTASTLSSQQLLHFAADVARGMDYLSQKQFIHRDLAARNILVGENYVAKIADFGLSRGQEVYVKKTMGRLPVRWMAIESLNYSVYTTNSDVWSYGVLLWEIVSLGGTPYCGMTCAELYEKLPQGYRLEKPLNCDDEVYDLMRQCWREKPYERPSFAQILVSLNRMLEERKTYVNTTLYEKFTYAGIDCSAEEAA
# Sequence of STK3 (human) (Q13188 whole entry, looked up): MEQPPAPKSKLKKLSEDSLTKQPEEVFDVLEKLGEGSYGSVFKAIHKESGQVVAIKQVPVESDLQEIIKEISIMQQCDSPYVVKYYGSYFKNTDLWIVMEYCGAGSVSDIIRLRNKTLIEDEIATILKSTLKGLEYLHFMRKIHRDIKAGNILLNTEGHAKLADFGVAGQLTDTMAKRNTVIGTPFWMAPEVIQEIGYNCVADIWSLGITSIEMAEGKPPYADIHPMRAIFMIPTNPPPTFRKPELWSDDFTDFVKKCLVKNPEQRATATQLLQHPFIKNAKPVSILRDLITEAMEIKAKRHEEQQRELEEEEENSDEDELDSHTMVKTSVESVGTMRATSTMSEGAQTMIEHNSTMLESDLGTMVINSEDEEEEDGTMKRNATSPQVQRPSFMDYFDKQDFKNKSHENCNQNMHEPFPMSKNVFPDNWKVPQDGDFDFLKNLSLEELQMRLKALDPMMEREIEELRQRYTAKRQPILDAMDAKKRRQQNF
# Sequence of RET (human), P07949 [V804L] (P07949 whole entry V804L, looked up): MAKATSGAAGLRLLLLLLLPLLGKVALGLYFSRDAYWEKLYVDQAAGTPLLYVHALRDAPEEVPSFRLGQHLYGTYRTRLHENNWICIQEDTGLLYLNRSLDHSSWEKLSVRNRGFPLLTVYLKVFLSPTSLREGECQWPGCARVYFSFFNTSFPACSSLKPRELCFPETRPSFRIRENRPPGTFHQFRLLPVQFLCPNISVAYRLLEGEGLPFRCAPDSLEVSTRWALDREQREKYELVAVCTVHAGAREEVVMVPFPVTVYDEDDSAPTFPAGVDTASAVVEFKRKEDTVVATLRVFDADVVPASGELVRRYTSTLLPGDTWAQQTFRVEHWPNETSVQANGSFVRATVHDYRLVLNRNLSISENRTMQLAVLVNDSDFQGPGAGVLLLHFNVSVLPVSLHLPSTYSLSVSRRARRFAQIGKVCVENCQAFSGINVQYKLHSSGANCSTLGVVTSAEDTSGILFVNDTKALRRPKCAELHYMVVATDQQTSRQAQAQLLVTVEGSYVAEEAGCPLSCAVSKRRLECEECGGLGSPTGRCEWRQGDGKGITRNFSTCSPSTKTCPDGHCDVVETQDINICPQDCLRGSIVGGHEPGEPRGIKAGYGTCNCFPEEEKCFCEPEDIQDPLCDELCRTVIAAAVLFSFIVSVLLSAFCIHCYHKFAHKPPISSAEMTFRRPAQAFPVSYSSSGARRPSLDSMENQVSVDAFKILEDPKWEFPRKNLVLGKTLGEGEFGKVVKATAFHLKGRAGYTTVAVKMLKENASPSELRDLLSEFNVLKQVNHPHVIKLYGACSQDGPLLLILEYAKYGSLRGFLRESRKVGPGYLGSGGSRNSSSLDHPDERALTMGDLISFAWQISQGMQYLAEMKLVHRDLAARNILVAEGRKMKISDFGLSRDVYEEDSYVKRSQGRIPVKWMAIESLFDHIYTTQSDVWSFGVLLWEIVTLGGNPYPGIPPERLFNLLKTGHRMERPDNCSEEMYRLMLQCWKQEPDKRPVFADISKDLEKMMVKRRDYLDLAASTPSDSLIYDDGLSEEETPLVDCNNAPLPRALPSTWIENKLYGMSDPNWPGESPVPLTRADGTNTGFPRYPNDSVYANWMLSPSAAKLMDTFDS
# Sequence of PAK2 (human) (Q13177 whole entry, looked up): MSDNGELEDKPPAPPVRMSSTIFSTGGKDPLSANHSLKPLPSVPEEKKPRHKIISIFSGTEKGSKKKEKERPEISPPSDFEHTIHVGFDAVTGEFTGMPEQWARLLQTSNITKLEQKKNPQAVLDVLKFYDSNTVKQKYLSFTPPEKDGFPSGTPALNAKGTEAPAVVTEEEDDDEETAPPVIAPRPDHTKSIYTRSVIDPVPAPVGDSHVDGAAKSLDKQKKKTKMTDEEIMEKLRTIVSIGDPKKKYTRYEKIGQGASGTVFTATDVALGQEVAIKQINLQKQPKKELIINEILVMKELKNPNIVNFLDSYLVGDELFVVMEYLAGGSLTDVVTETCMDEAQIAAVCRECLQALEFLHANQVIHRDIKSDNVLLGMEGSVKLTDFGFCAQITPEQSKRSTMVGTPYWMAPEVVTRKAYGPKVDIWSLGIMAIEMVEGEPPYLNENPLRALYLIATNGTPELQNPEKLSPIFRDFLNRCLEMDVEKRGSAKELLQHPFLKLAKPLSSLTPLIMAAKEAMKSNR
# Sequence of STK17A (human) (Q9UEE5 whole entry, looked up): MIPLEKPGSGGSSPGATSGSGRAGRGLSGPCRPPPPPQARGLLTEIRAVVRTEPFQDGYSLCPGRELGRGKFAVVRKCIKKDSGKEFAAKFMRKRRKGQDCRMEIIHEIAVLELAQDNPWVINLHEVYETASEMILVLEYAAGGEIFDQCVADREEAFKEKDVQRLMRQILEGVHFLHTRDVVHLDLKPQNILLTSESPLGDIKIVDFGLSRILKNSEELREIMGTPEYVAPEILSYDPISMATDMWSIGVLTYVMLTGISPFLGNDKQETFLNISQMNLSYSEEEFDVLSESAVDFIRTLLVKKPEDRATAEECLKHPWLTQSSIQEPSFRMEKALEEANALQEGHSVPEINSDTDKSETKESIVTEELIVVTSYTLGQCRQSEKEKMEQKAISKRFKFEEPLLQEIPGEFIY
# Sequence of ACVR2B (human) (Q13705 whole entry, looked up): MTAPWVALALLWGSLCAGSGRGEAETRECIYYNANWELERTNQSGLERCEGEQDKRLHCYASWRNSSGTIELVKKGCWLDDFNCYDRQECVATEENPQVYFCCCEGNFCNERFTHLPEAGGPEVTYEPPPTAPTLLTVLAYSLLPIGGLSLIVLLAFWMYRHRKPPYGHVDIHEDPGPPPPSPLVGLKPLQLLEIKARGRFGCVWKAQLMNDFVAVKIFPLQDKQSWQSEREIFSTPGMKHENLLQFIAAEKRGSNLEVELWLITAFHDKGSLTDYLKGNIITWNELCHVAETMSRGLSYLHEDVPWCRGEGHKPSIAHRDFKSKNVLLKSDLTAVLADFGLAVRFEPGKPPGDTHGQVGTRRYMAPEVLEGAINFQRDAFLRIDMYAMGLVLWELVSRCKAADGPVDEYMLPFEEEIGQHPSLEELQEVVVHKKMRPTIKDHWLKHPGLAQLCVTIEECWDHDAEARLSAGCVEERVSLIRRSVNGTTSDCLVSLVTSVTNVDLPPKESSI
structure (smiles),measurement,setting,value
Cn1c2ccccc2c2c3c(c4c5ccccc5n(CCC#N)c4c21)CNC3=O,"kinase still bound, per cent of control",STK17A (human),71%
same,"kinase still bound, per cent of control",FLT1 (human),95%
same,"kinase still bound, per cent of control",PIM2 (human),100%
same,"kinase still bound, per cent of control",AKT3 (human),100%
same,"kinase still bound, per cent of control",IRAK1 (human),14%
same,"kinase still bound, per cent of control",MARK4 (human),72%
same,"kinase still bound, per cent of control",[1],12%
same,"kinase still bound, per cent of control",[2],0.1%
same,"kinase still bound, per cent of control",PIM3 (human),8.9%
same,"kinase still bound, per cent of control",FGFR3 (human),97%
same,"kinase still bound, per cent of control",DYRK1B (human),12%
same,"kinase still bound, per cent of control",CLK2 (human),38%
same,"kinase still bound, per cent of control",NEK4 (human),100%
same,"kinase still bound, per cent of control",CSNK1D (human),81%
same,"kinase still bound, per cent of control",MYO3B (human),100%
same,"kinase still bound, per cent of control",CIT (human),34%
same,"kinase still bound, per cent of control",PAK2 (human),51%
same,"kinase still bound, per cent of control",PRKCQ (human),59%
same,"kinase still bound, per cent of control",DCLK1 (human),87%
same,"kinase still bound, per cent of control",GSK3A (human),100%
same,"kinase still bound, per cent of control",STK32B (human),100%
same,"kinase still bound, per cent of control",[3],84%
same,"kinase still bound, per cent of control",STK10 (human),28%
same,"kinase still bound, per cent of control",CDK4 CCND3 (human),42%
same,"kinase still bound, per cent of control",STK3 (human),0.8%
same,"kinase still bound, per cent of control",STK25 (human),100%
same,"kinase still bound, per cent of control",MAPK15 (human),0.45%
same,"kinase still bound, per cent of control",MAPK1 (human),100%
same,"kinase still bound, per cent of control",MYLK4 (human),17%
same,"kinase still bound, per cent of control",CDK18 (human),91%
same,"kinase still bound, per cent of control",YES1 (human),96%
same,"kinase still bound, per cent of control",RPS6KA1 KD1 (human),36%
same,"kinase still bound, per cent of control",FGFR2 (human),95%
same,"kinase still bound, per cent of control",[4],77%
same,"kinase still bound, per cent of control",CDC2L2 (human),84%
same,"kinase still bound, per cent of control",TEK (human),99%
same,"kinase still bound, per cent of control",TLK1 (human),83%
same,"kinase still bound, per cent of control",MAP4K5 (human),7.8%
same,"kinase still bound, per cent of control",PRKG2 (human),11%
same,"kinase still bound, per cent of control",ACVR2B (human),97%
same,"kinase still bound, per cent of control",RIOK3 (human),1.2%
